Reference: patent US8273562B2, “Method for producing 4-hydroxy-L-isoleucine” (Ajinomoto Co., Inc., priority 2006, dated 2012)

B1: L-Ile hydroxylase: L-isoleucine dioxygenase purified from Bacillus thuringiensis strain 2-e-2, SEQ ID NO: 2 (protein, listed as Bacillus thuringiensis)
chain: KMSGFSIEEKVHEFESKGFLEISNEIFLQEEENHSLLTQAQLDYYNLEDDAYGECRARSYSRYIKYVDSPDYILDNSNDYFQSKEYNYDDGGKVRQFNSINDSFLCNPLIQNIVRFDTEFAFKTNIIDKSKDLIIGLHQVRYKATKERPSFSSPIWLHKDDEPVVFLHLMNLSNTAIGGDNLIANSPREINQFISLKEPLETLVFGQKVFHAVTPLGTECSTEAFRDILLVTFSYKETK

Tests used:
[1] = system: isolated perfused rat pancreas; conditions: stimulating effect dependent on plasma glucose concentrations; cited from earlier work
[2] = system: human pancreatic islets; conditions: stimulating effect dependent on plasma glucose concentrations; cited from earlier work
[3] = IDO activity assay in crude cell lysate of recombinant E. coli strains; format: biochemical, Escherichia coli
Procedure: 2.4. The IDO activity assay in crude cell lysate of TG1[pMW119-IDO(Lys, 23) and TG1[pMW119-IDO(Lys, 32): To investigate the IDO activity in crude cell lysates of recombinant E. coli strains, the following procedures were carried out. Cells from 5 ml of culture were harvested by centrifugation at 4° C., re-suspended in 0.5 ml of buffer A*(50 mM TRIZMA, 5% glycerol, 1 mM EDTA, 1 mM DTT, pH 7 adjusted by HCl) and disrupted by sonication at 4° C. The reaction mixture (50 μl) contained 50 mM HEPES pH 7.0, 5 mM Ile, 0.5 mM α-ketoglutarate, 5 mM ascorbate, 5 mM FeSO4, and an aliquot of the protein preparation. The reaction was incubated at 34° C. for 1 hour with shaking. The synthesized 4HIL was detected using TLC or HPLC analysis as described in Example 4.

[4] = Optimum pH, optimum temperature and temperature stability of purified L-Ile hydroxylase; format: biochemical, Bacillus thuringiensis; conditions: enzyme solution pH 7.0 incubated 1 hour at 0 to 70° C.
Procedure: By using L-Ile hydroxylase prepared as described in Example 2, pH dependency on the producing of the 4-hydroxyisoleucine was evaluated. The enzymatic reaction solution contained 5 mM L-Ile, 5 mM Fe^2+, 5 mM 2-oxoglutaric acid, 5 mM ascorbic acid and 200 mM GTA (pH 3 to 12). The reaction temperature was 30° C. […] Production of a large amount was confirmed at pH 4 to 8, and production of the most 4-hydroxyisoleucine was confirmed at pH 5 to 8.
By using L-Ile hydroxylase prepared as described in Example 2, the optimum temperature of the 4-hydroxyisoleucine production activity was evaluated. The enzymatic reaction solution contained 5 mM Ile, 5 mM Fe^2+, 5 mM 2-oxoglutaric acid, 5 mM ascorbic acid, and 100 mM HEPES (pH 6). […] High production was confirmed for the temperature range of 0 to 40° C.
By using L-Ile hydroxylase prepared as described in Example 2, the temperature stability during production of 4-hydroxyisoleucine was evaluated. The enzyme solution at pH 7.0 was incubated at 0 to 70° C. for 1 hour, and then the Ile hydroxylation activity was measured. The enzymatic reaction solution contained 5 mM Ile, 5 mM Fe^2+, 5 mM 2-oxoglutaric acid, 5 mM ascorbic acid, and 100 mM HEPES (pH 6), and the reaction temperature was 30° C. These values are relative to the storage temperature which produced the maximum amount of hydroxyisoleucine, which was set as 100%. […]

| Molecule | insulinotropic activity [1] | insulinotropic activity [2] | IDO activity in comparison with IDO(Lys,32) [3] [times] | temperature at which enzyme was inactivated [4] [°C] |
| --- | --- | --- | --- | --- |
| C[C@@H]([C@H](C)O)[C@H](N)C(=O)O [4-Hydroxy-L-isoleucine, (2S,3R,4S)-4-hydroxy-L-isoleucine] | insulinotropic activity | insulinotropic activity | – | – |
| B1 | – | – | 5 | ≥ 60 |
